Assay results as given in patent EP0326331B1, “Substituted quinolines and cinnolines” (Dow AgroSciences LLC, priority 1988, dated 1989).
Read-outs that look alike come from different tables or passages of the source.

Legend:
Assay type in all cases: in vivo
[1] = tested on: southern armyworm (Spodopetra eridania Cramer); assay: Mite/insect screen, SAW; settings: Spodoptera eridania, percent mortality, read-out: SAW RESULTS %
Procedure: (§1) The compounds of Examples 1-295 were tested for miticidal and insecticidal activity in the following mite/insect screen.
(§2) Each test compound was formulated by dissolving the compound in acetone/alcohol (50:50) mixture containing 23 g of "TOXIMUL R" (sulfonate/nonionic emulsifier blend) and 13 g of "TOXIMUL S" (sulfonate/nonionic emulsifier blend) per liter. These mixtures were then diluted with water to give the indicated concentrations.
(§3) Other plants in the same treatment pot were left uninfested. The leaves were then sprayed with 5 ml of test solution using a DeVilbiss atomizing sprayer at 10 psi. Both surfaces of the leaves were covered until runoff, and then allowed to dry for one hour. Two uninfested leaves were then excised and placed into a Petri dish containing southern armyworm (Spodopetra eridania Cramer).
(§4) After standard exposure periods, percent mortality was evaluated. […]

[2] = tested on: Pseudoperonospora cubensis (downy mildew); assay: Test 1 greenhouse foliar spray screen, downy mildew on squash; settings: disease control rating, foliar spray on squash, 400 ppm (+++ at 100 ppm)
[3] = tested on: Pyricularia oryzae (rice blast); assay: whole plant or invertebrate; settings: for RICE BLAST: disease control rating, foliar spray on rice, 400 ppm (+++ at 100 ppm)
[4] = tested on: Puccinia recondita tritici (leaf rust); assay: Test 1 greenhouse foliar spray screen, leaf rust on wheat; settings: for LEAF RUST: disease control rating, foliar spray on wheat, 400 ppm (+++ at 100 ppm)
[5] = tested on: Botrytis cinerea (gray mold); assay: Test 1 greenhouse foliar spray screen, gray mold on grape berries; settings: for GRAY MOLD: disease control rating, spray on grape berries, 400 ppm (+++ at 100 ppm)
[6] = tested on: Erysiphe graminis tritici (powdery mildew); assay: Test 1 greenhouse foliar spray screen, powdery mildew on wheat; settings: for POWD MDEW: disease control rating, foliar spray on wheat, 400 ppm (+++ at 100 ppm)
[7] = tested on: melon aphids (Aphis gossypii Glover); assay: Mite/insect screen, MA; settings: Aphis gossypii, percent mortality, read-out: MA RESULTS %
Procedure: as §1, §2, §3, §4

[8] = tested on: Twospotted spider mites (Tetranychus urticae Koch); assay: Mite/insect screen, SM; settings: Tetranychus urticae, percent mortality, read-out: SM RESULTS %
Procedure: as §1, §2, §3, §4

corn rootworm = assay: Mite/insect screen, CRW; settings: percent mortality, read-out: CRW RESULTS %
Procedure: as §1, §2, §4

[9] = foliar, rate 200 ppm, foliar spray on squash
[10] = foliar, rate 400 ppm, foliar spray on squash

Row | SMILES | mortality at 200 ppm ([1]; SAW, SM & MA RATE 200 PPM) [%] | DOWN MDEW [2] | RICE BLAST [3] | LEAF RUST [4] | GRAY MOLD [5] | POWD MDEW [6] | mortality at 200 ppm ([7]; SAW, SM & MA RATE 200 PPM) [%] | mortality at 200 ppm ([8]; SAW, SM & MA RATE 200 PPM) [%] | mortality at 12 ppm (corn rootworm; CRW RATE 12.00 PPM) [%] | mortality at 400 ppm ([1]; SAW, SM & MA RATE 400 PPM) [%] | mortality at 400 ppm ([7]; SAW, SM & MA RATE 400 PPM) [%] | mortality at 400 ppm ([8]; SAW, SM & MA RATE 400 PPM) [%] | mortality at 24 ppm (corn rootworm; CRW RATE 24.00 PPM) [%] | also measured
1 | CCc1cccc2c(NCCc3ccccc3)ccnc12 [Example 29, 8-ethyl-N-(2-phenylethyl)-4-quinolinamine] | 0 | - (0-19% control at 400 ppm) | + (20-89% control at 400 ppm) | + (20-89% control at 400 ppm) | - (0-19% control at 400 ppm) | - (0-19% control at 400 ppm) | 0 | 0 | 0 |  |  |  |  | 
2 | Clc1ccc(CCNc2ccnc3cc(Cl)ccc23)cc1 [Example 37, 7-chloro-N-[2-(4-chlorophenyl)ethyl]-4-quinolinamine] | 0 | + (20-89% control at 400 ppm) | - (0-19% control at 400 ppm) | + (20-89% control at 400 ppm) | - (0-19% control at 400 ppm) | + (20-89% control at 400 ppm) | 0 | 0 | 0 | 0 | 0 | 0 | 0 | 
3 | Fc1cc(F)c2nccc(NCCc3ccc(-c4ccccc4)cc3)c2c1 [Example 40, 6,8-difluoro-N-(2-[1,1'-biphenyl]-4-ylethyl)-4-quinolinamine] | 0 | + (20-89% control at 400 ppm) | ++ (90-100% control at 400 ppm) | +++ (90-100% control at 100 ppm) | - (0-19% control at 400 ppm) | - (0-19% control at 400 ppm) | 0 | 0 | 0 | 80 | 0 | 0 | 100 | 
4 | FC(F)(F)c1ccc2c(NCCc3ccc(Cl)cc3)ccnc2c1 [Example 47, N-[2-(4-chlorophenyl)ethyl]-7-(trifluoromethyl)-4-quinolinamine] | 0 | + (20-89% control at 400 ppm) | - (0-19% control at 400 ppm) | + (20-89% control at 400 ppm) | - (0-19% control at 400 ppm) | + (20-89% control at 400 ppm) | 0 | 0 | 0 | 0 | 0 | 0 | 0 | 
5 | Cc1ccc(CCNc2ccnc3ccc(C)cc23)cc1 [Example 58, 6-methyl-N-[2-(4-methylphenyl)ethyl]-4-quinolinamine] |  | +++ (90-100% control at 100 ppm) | - (0-19% control at 400 ppm) | + (20-89% control at 400 ppm) | - (0-19% control at 400 ppm) | - (0-19% control at 400 ppm) |  |  |  | 0 | 0 | 0 | 0 | 
6 | Clc1ccc(CCNc2ccnc3cc(Cl)cc(Cl)c23)cc1 [Example 59, 5,7-dichloro-N-[2-(4-chlorophenyl)ethyl]-4-quinolinamine] | 0 | - (0-19% control at 400 ppm) | + (20-89% control at 400 ppm) | - (0-19% control at 400 ppm) | - (0-19% control at 400 ppm) | + (20-89% control at 400 ppm) | 0 | 0 | 0 | 0 | 0 | 0 | 0 | 
7 | Clc1ccc2c(NCCc3cccc(Oc4ccccc4)c3)ccnc2c1 [Example 60, 7-chloro-N-[2-(3-phenoxyphenyl)ethyl]-4-quinolinamine] | 0 | +++ (90-100% control at 100 ppm) | +++ (90-100% control at 100 ppm) | ++ (90-100% control at 400 ppm) | - (0-19% control at 400 ppm) | ++ (90-100% control at 400 ppm) | 0 | 0 | 0 | 0 | 0 | 0 | 0 | 
8 | Cc1cccc2c(NCCc3ccc(Cl)cc3)ccnc12 [Example 61, 8-methyl-N-[2-(4-chlorophenyl)ethyl]-4-quinolinamine] | 0 | +++ (90-100% control at 100 ppm) | ++ (90-100% control at 400 ppm) | ++ (90-100% control at 400 ppm) | - (0-19% control at 400 ppm) | - (0-19% control at 400 ppm) | 0 | 0 | 0 | 0 | 0 | 0 | 0 | 
9 | Fc1cccc2c(NCCc3ccccc3Oc3ccccc3)ccnc12 [Example 63, 8-fluoro-N-[2-(2-phenoxyphenyl)ethyl]-4-quinolinamine] |  | ++ (90-100% control at 400 ppm) | + (20-89% control at 400 ppm) | +++ (90-100% control at 100 ppm) | - (0-19% control at 400 ppm) | - (0-19% control at 400 ppm) |  |  |  | 0 | 0 | 0 | 0 | 
10 | Cc1ccc2c(NCCc3ccccc3Oc3ccccc3)ccnc2c1C [Example 64, 7,8-dimethyl-N-[2-(2-phenoxyphenyl)ethyl]-4-quinolinamine] | 60 | +++ (90-100% control at 100 ppm) | - (0-19% control at 400 ppm) | + (20-89% control at 400 ppm) | - (0-19% control at 400 ppm) | + (20-89% control at 400 ppm) | 0 | 0 | 0 | 0 | 0 | 0 | 0 | 
11 | [O-][S+](CCc1ccccc1)c1ccnc2c(F)cccc12 (stereo not shown) [Example 264, 8-fluoro-4-[(2-phenylethyl)sulfinyl]quinoline] |  |  |  |  |  |  |  |  |  |  |  |  |  | mortality at 200 ppm [1, 9]: 0%; mortality at 400 ppm [1, 10]: 0%; pest or weed control at 400 ppm ([3]; Pyricularia oryzae, foliar, read-out: RICE BLAST, Test 1, foliar spray on rice, disease control rating at 400 ppm / 100 ppm): 0 to 19%; pest or weed control at 400 ppm ([4]; Puccinia recondita, foliar, Test 1, foliar spray on wheat, disease control rating at 400 ppm / 100 ppm): 20 to 89%; pest or weed control at 400 ppm ([5]; Botrytis cinerea, foliar, Test 1, spray on grape berries, disease control rating at 400 ppm / 100 ppm): 0 to 19%; pest or weed control at 400 ppm ([6]; Blumeria graminis, foliar, Test 1, foliar spray on wheat, disease control rating at 400 ppm / 100 ppm, read-out: POWD MDEW): 0 to 19%; mortality at 200 ppm [7, 9]: 0%; mortality at 400 ppm [7, 10]: 0%; mortality at 200 ppm [8, 9]: 0%; mortality at 400 ppm [8, 10]: 0%; mortality at 12 ppm (corn rootworm; CRW rate 12.00 ppm): 0%; mortality at 24 ppm (corn rootworm; CRW rate 24.00 ppm): 0%
